Reference: ChEMBL document CHEMBL5360652, “Drug Discovery Targeting Nuclear Receptor Binding SET Domain Protein 2 (NSD2)” (J Med Chem, 2023)

Columns and labels:
[1] = target: Histone-lysine N-methyltransferase NSD2 (Homo sapiens, UniProt O96028, E1099K); assay: Inhibition of NSD2 E1099K mutant (unknown origin)
[2] = target: Histone-lysine N-methyltransferase NSD2 (Homo sapiens, UniProt O96028, T1150A); assay: Inhibition of NSD2 T1150A mutant (unknown origin)
U2OS = assay: Cytotoxicity against human U2OS cells assessed as cell growth inhibition; format: functional
[3] = target: T1, Histone-lysine N-methyltransferase, H3 lysine-36 specific (Homo sapiens, UniProt Q96L73); assay: Inhibition of NSD1 SET domain (1852 to 2105 residues) (unknown origin) expressed in Escherichia coli BL21 (DE3)
T1 sequence (Q96L73 whole entry, the tested form may be a part): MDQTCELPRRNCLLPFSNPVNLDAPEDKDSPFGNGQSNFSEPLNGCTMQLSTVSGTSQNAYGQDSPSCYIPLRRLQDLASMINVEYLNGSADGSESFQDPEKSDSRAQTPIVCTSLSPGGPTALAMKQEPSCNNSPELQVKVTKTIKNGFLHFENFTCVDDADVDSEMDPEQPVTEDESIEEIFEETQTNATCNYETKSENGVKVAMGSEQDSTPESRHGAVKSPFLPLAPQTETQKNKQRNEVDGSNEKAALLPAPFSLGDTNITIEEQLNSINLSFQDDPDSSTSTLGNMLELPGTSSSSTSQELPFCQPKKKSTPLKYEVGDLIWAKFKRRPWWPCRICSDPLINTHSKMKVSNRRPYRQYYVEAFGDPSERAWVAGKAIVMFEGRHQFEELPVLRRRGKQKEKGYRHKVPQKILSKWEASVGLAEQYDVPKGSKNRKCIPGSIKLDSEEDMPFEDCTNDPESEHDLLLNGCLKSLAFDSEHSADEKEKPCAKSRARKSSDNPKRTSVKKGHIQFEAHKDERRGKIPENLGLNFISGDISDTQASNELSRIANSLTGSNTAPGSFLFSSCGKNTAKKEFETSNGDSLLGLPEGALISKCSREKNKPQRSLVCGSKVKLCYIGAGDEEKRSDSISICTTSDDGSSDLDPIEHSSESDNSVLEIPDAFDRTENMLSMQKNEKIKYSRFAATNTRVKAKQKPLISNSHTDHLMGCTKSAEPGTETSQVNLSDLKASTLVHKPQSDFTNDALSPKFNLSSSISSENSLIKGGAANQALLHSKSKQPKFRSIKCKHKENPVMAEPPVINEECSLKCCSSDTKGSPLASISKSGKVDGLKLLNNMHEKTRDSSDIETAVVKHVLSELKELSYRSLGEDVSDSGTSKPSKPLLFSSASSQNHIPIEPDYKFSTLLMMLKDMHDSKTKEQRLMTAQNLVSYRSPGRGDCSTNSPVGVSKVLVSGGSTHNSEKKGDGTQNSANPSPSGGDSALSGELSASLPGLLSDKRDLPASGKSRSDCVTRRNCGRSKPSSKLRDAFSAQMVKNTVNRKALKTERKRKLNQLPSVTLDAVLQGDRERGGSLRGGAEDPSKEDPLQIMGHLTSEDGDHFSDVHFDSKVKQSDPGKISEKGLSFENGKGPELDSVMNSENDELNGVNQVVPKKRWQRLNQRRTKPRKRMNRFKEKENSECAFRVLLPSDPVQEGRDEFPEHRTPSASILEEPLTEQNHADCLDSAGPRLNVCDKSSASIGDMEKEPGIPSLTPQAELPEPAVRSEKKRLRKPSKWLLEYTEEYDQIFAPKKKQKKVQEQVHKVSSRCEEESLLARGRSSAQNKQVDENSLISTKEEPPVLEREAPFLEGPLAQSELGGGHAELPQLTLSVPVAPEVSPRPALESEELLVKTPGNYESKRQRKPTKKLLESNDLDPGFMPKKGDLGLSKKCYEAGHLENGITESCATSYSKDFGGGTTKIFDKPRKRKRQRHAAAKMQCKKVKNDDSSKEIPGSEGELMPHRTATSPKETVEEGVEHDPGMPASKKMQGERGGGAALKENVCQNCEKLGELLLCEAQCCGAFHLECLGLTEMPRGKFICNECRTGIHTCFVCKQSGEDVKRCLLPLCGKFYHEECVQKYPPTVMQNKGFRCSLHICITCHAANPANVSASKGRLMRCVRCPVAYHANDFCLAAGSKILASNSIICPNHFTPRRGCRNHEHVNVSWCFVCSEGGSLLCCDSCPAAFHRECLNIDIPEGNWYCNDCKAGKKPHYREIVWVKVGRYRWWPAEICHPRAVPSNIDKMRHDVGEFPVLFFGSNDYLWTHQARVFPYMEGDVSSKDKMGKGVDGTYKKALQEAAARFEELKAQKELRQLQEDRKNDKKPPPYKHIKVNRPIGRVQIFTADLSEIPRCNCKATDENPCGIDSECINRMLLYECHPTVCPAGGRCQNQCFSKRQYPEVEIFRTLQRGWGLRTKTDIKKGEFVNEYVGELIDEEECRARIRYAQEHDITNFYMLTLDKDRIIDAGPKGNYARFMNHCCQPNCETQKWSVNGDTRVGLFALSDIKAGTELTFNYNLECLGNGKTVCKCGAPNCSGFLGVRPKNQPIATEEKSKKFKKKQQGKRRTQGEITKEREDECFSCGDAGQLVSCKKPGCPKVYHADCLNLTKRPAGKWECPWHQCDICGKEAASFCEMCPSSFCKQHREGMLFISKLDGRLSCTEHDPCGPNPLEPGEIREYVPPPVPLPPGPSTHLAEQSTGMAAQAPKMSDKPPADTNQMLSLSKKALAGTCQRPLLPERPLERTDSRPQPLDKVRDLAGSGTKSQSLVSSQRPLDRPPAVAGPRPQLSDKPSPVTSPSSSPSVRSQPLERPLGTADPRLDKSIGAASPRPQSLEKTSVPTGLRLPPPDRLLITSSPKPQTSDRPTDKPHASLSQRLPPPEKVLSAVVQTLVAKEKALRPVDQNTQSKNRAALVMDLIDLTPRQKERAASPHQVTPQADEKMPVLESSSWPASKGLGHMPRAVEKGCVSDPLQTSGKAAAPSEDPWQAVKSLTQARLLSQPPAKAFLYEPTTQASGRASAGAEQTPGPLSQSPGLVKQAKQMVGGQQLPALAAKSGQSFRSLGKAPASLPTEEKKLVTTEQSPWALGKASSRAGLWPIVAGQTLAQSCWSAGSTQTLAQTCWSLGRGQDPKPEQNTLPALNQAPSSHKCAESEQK

[4] = target: T2, Histone-lysine N-methyltransferase NSD2 (Homo sapiens) (UniProt O96028); assay: Inhibition of NSD2 (unknown origin) at 50 uM relative to control
T2 sequence (whole entry): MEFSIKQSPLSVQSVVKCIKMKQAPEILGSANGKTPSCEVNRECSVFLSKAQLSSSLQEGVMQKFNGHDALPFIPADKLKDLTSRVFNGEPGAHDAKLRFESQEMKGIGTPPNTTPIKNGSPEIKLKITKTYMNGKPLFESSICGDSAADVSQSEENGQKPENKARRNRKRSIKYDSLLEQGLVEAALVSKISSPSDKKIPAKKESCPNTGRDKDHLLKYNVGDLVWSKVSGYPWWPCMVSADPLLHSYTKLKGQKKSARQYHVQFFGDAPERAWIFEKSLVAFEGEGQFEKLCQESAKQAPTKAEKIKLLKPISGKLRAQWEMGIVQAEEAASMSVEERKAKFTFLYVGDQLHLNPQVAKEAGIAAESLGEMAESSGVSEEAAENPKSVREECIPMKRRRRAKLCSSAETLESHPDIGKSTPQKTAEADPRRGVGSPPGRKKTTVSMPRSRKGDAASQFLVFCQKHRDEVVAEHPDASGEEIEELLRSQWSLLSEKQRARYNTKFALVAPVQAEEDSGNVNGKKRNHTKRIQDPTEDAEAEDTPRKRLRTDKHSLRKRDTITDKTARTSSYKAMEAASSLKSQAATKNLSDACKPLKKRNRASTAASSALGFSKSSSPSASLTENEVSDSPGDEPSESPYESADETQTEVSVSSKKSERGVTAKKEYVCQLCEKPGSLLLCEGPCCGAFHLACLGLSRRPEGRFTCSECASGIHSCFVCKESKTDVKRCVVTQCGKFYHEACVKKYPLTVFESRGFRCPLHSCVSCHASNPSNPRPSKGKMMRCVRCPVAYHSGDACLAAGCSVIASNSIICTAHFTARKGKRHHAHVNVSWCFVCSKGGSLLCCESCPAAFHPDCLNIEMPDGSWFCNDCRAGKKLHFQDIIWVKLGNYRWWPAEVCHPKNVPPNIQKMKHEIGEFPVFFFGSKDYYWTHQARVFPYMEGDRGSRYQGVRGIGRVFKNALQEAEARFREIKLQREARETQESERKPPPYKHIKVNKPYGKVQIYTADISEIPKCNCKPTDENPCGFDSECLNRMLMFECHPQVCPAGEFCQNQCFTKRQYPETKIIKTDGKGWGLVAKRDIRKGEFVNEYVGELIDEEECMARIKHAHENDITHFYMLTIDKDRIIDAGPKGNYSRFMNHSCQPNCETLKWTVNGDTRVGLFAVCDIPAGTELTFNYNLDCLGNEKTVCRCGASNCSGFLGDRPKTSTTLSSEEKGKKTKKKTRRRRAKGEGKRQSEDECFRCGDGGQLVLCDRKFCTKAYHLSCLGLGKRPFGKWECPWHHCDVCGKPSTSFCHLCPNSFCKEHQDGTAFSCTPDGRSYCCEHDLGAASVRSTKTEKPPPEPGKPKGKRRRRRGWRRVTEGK

[5] = target: T2, Histone-lysine N-methyltransferase NSD2 (Homo sapiens); assay: Inhibition of NSD2 (unknown origin) at 10 uM relative to control
[6] = target: Histone-lysine N-methyltransferase 2A (Homo sapiens) (UniProt Q03164); assay: Inhibition of MLL1 (unknown origin) at 10 uM relative to control
[7] = target: Histone-lysine N-methyltransferase SETDB1 (Homo sapiens) (UniProt Q15047); assay: Inhibition of SETDB1 (unknown origin) at 10 uM relative to control
PC-3 = assay: Antiproliferative activity against human PC-3 cells assessed as cell growth inhibition incubated for 48 hrs by MTT assay; format: functional, cell-based; settings: PC-3, 48 h
[8] = target: T3, Histone-lysine N-methyltransferase NSD2 (Homo sapiens, UniProt O96028); assay: Inhibition of NSD2 (unknown origin)
T3 sequence (O96028 whole entry): T2 sequence (whole entry)

[9] = target: T2, Histone-lysine N-methyltransferase NSD2 (Homo sapiens); assay: Induction of degradation of NSD2 in human U2OS cells assessed as maximum degradation relative to control; format: cell-based
[10] = target: T3, Histone-lysine N-methyltransferase NSD2; assay: Induction of degradation of NSD2 in human U2OS cells; format: cell-based
[11] = target: T1, Histone-lysine N-methyltransferase, H3 lysine-36 specific; assay: Inhibition of human recombinant NSD1 incubated for 2 hrs by AlphaLISA method
[12] = target: T1, Histone-lysine N-methyltransferase, H3 lysine-36 specific; assay: Binding affinity to NSD1 (unknown origin) assessed as dissociation constant by ITC assay
[13] = Inhibition of N-terminal hexa-histidine tagged NSD3 SET domain (1066 to 1288 residues) (unknown origin) expressed in Escherichia coli incubated for 4 hrs by ITC method; set-up: species or system Homo sapiens
[14] = target: von Hippel-Lindau disease tumor suppressor/Histone-lysine N-methyltransferase NSD3 (Homo sapiens, UniProt P40337+Q9BZ95); assay: Protac activity at VHL/NSD3 in human MOLM-13 cells assessed as induction of NSD3 degradation incubated for 6 hrs by immunoblotting analysis; format: cell-based
Sequence of von Hippel-Lindau disease tumor suppressor/Histone-lysine N-methyltransferase NSD3 (P40337 whole entry, one chain of several): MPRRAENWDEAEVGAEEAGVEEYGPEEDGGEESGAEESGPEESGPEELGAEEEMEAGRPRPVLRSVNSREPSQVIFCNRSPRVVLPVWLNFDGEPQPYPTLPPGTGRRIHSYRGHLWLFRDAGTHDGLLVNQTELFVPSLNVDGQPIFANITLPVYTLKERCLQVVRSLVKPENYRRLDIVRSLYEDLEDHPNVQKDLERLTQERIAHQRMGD

[15] = target: von Hippel-Lindau disease tumor suppressor/Histone-lysine N-methyltransferase NSD3 (Homo sapiens) (UniProt Q9BZ95+P40337); assay: Protac activity at VHL/NSD3 in human MOLM-13 cells assessed as induction of NSD3 degradation incubated for 48 hrs by immunoblotting analysis relative to control; format: cell-based
Sequence of von Hippel-Lindau disease tumor suppressor/Histone-lysine N-methyltransferase NSD3 (Homo sapiens) (P40337 whole entry, looked up, one chain of several, the tested form may be a part): as the sequence (P40337 whole entry, one chain of several) above

[16] = target: T4, Histone-lysine N-methyltransferase NSD3 (Homo sapiens, UniProt Q9BZ95); assay: Binding affinity to human recombinant NSD3 PWWP1 domain assessed as dissociation constant
T4 sequence (Q9BZ95 whole entry): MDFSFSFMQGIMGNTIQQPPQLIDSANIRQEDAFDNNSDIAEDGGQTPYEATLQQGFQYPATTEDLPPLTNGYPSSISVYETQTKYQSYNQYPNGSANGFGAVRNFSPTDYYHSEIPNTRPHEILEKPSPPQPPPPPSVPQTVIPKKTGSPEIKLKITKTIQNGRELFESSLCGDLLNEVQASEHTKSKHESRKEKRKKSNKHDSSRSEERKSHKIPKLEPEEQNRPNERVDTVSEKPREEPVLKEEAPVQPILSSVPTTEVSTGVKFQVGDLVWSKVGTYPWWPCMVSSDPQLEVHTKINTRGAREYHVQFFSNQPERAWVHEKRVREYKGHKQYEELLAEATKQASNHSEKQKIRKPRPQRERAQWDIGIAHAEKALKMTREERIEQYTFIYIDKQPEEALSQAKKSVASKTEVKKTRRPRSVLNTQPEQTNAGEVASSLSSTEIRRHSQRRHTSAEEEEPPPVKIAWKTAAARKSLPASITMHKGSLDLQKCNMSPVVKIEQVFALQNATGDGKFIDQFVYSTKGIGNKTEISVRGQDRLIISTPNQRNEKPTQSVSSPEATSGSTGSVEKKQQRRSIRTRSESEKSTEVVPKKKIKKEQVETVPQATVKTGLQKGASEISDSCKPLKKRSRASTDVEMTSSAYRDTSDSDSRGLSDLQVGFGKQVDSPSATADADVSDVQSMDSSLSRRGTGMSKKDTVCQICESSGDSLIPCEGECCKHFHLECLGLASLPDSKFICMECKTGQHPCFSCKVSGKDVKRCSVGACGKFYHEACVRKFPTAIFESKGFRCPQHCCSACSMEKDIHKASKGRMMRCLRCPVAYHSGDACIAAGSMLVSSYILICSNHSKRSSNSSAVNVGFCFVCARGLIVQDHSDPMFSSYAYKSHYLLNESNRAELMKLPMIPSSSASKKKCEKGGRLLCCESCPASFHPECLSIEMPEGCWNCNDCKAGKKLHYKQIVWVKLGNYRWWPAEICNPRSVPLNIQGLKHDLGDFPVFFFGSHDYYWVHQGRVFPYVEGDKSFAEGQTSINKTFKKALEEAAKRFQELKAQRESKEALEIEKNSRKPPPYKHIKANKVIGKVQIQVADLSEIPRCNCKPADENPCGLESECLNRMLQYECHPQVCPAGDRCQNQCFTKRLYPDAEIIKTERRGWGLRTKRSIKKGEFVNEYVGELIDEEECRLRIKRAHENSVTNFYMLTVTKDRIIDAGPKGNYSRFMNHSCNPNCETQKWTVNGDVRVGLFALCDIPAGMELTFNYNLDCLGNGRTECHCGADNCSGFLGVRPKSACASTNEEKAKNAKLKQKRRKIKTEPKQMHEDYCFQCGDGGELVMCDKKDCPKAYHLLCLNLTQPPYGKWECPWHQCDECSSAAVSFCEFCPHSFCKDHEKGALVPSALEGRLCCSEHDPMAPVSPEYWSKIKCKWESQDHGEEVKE

Sequence of Histone-lysine N-methyltransferase NSD2 (Homo sapiens, UniProt O96028, E1099K) (O96028 whole entry E1099K): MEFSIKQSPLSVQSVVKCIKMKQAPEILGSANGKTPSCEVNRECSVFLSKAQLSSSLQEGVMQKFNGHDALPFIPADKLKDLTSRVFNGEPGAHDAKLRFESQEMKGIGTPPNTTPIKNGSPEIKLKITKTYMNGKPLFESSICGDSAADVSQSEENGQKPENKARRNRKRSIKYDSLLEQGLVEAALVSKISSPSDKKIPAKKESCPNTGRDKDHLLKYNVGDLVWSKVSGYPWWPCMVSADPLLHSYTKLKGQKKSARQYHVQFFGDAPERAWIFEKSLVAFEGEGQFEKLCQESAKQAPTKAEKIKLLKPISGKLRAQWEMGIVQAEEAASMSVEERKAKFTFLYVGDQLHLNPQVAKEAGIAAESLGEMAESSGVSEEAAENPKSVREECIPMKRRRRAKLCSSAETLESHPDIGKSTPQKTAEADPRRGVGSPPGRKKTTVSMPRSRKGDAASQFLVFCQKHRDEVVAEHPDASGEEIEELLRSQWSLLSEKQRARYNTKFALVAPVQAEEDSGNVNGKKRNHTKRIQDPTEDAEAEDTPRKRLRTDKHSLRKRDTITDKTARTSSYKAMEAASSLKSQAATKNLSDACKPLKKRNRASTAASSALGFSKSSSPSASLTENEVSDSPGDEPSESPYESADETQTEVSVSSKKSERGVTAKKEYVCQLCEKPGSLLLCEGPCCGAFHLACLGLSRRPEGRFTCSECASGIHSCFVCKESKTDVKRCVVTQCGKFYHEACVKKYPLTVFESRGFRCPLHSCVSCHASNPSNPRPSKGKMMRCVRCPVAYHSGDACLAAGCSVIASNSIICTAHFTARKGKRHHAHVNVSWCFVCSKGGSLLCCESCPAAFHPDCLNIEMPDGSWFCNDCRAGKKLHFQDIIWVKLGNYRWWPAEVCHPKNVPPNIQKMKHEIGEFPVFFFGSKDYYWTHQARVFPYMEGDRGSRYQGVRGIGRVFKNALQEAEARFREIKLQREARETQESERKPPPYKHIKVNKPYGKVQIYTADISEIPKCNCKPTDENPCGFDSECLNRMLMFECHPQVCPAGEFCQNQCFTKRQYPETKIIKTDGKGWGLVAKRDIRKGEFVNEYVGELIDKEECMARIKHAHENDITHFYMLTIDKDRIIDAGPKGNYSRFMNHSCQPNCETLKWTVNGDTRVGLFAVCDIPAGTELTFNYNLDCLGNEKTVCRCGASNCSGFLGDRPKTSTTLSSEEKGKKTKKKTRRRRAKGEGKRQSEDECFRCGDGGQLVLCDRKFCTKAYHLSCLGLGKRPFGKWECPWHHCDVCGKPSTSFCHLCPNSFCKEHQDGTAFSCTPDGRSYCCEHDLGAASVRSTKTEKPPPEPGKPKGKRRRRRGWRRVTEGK
Sequence of Histone-lysine N-methyltransferase NSD2 (Homo sapiens, UniProt O96028, T1150A) (O96028 whole entry T1150A): as the sequence (O96028 whole entry E1099K) above, with K1099E, T1150A counted along it

In the case of `O=C1C(Cl)=C(NCCN2CCOCC2)C(=O)c2ncccc21`, the IC50 [1] is reported as 0.11 µM, the IC50 [2] is reported as 0.17 µM and the CC50 (U2OS) is reported as 0.27 µM.

In the case of `O=C1O[C@@H](C(=O)N2CCN(Cc3nc4sc5c(c4c(=O)[nH]3)CCCC5)CC2)Cc2ccccc21`, the IC50 [3] is reported as > 1000 µM.

Work on `COC(=O)c1cc(NC(=O)Nc2ccc3nnsc3c2)cc(C(=O)OC)c1` yielded an inhibition [4] of 95%, an inhibition [5] of 97% and an inhibition [6] of 79%. For the same compound, the inhibition [7] was 85% and the IC50 (PC-3) was < 10 µM.

Work on `O=C(Nc1cccc([N+](=O)[O-])c1)Nc1ccc2nnsc2c1` yielded an inhibition [4] of 96%.

For `Cn1nnc2cc(NC(=O)Nc3cccc([N+](=O)[O-])c3)ccc21`, the IC50 [8] was 8.3 µM.

`C=CC(=O)Nc1cc(NC(=O)Nc2ccc3nnsc3c2)cc(C(=O)OC)c1` gave an inhibition [4] of 92%.

With `NCCCCCCNC(=O)c1ccc(NC(=O)c2ccc(CN(C(=O)c3ccc4c(c3)OCC(=O)N4)C3CC3)cc2)cc1` the Emax [9] was 79% and the EC50 [10] was 0.35 µM.

With `COc1ccc(-c2cc(Cn3cnc4c(N)ncnc43)c(N3CCC[C@](N)(COC4CCC4)C3)cn2)cc1F` the IC50 [11] was 0.27 µM.

For `COC[C@@]1(N)CCCN(c2cnc(-c3ccc(F)c(F)c3)cc2Cn2cnc3c(N)ncnc32)C1`, the IC50 [11] was 0.16 µM.

Work on `O=C1c2c(O)ccc(O)c2C(=O)C2C(NCCNCCO)=CC=C(NCCNCCO)C12` (stereo unspecified) yielded a Kd [12] of 1.2 µM.

For `CC1CN1c1cc(O)c2nc(N)sc2c1` (stereo unspecified), the IC50 [13] was 14.3 µM.

Work on `Cc1cc(CNCCCC(=O)NCCCCCCCCC(=O)N[C@H](C(=O)N2C[C@H](O)C[C@H]2C(=O)N[C@@H](C)c2ccc(-c3scnc3C)cc2)C(C)(C)C)cc(C)c1-c1ncn(C)c1-c1ccnc2cc(F)ccc12` yielded an EC50 [14] of 4.9 µM, an Emax [15] of 80% and a Kd [16] of 1.3 µM.
